Data published in patent publication US9840500B2, “Compounds as dual inhibitors of histone methyltransferases and DNA methyltransferases” (FUNDACIÓN PARA LA INVESTIGACIÓN MÉDICA APLICADA, priority 2014, dated 2017).
pIC50: −log10 of the molar value.

Tests used:
OCI-Ly3 = assay: Cell proliferation assay, OCI-Ly3 (ABC-DLBCL); type: cell-based; details: Homo sapiens, 48 hours of treatment, Table 3
Description: (§1) Cell proliferation was analyzed after 48 hours of in vitro treatment using the CellTiter 96 Aqueous One Solution Cell Proliferation Assay (Promega, Madison, Wis.). This is a colorimetric method for determining the number of viable cells in proliferation.
(§2) For the assay, suspension cells were cultured by triplicate at a density of 1×10^6 cells/ml in 96-well plates (100.000 cells/well, 100 μl/well), except for OCILY-3 and OCILY-10 cell lines which were cultured at a density of 0.5×10^6 cells/ml (50.000 cells/well, 100 μl/well) and for HepG2, Hep3B and PLC/PRF/5 cell ines which were cultured at a density of 3000 cells/well, 100 μl/well). Adherent cells were obtained from 80-90% confluent flasks and 100 μl of cells were seeded at a density of 5000 cells/well in 96-well plates by triplicate. Before addition of the compounds, adherent cells were allowed to attach to the bottom of the wells for 12 hours. In all cases, only the 60 inner wells were used to avoid any border effects.
(§3) After 48 hours of treatment, plates with suspension cells were centrifuged at 800 g for 10 minutes and medium was removed. The plates with adherent cells were flicked to remove medium. Then, cells were incubated with 100 ul/well of medium and 20 ul/well of CellTiter 96 Aqueous One Solution reagent. After 1-3 hours of incubation at 37° C., absorbance was measured at 490 nm in a 96-well plate reader. The background absorbance was measured in wells with only cell line medium and solution reagent. Data was calculated as a percentage of total absorbance of treated cell/absorbance of non treated cells.

human G9a enzyme = target: T1, human G9a enzyme (Homo sapiens, UniProt Q96KQ7); assay: G9a enzyme activity assay (TR-FRET); type: biochemical
T1 sequence (Q96KQ7 1-1210): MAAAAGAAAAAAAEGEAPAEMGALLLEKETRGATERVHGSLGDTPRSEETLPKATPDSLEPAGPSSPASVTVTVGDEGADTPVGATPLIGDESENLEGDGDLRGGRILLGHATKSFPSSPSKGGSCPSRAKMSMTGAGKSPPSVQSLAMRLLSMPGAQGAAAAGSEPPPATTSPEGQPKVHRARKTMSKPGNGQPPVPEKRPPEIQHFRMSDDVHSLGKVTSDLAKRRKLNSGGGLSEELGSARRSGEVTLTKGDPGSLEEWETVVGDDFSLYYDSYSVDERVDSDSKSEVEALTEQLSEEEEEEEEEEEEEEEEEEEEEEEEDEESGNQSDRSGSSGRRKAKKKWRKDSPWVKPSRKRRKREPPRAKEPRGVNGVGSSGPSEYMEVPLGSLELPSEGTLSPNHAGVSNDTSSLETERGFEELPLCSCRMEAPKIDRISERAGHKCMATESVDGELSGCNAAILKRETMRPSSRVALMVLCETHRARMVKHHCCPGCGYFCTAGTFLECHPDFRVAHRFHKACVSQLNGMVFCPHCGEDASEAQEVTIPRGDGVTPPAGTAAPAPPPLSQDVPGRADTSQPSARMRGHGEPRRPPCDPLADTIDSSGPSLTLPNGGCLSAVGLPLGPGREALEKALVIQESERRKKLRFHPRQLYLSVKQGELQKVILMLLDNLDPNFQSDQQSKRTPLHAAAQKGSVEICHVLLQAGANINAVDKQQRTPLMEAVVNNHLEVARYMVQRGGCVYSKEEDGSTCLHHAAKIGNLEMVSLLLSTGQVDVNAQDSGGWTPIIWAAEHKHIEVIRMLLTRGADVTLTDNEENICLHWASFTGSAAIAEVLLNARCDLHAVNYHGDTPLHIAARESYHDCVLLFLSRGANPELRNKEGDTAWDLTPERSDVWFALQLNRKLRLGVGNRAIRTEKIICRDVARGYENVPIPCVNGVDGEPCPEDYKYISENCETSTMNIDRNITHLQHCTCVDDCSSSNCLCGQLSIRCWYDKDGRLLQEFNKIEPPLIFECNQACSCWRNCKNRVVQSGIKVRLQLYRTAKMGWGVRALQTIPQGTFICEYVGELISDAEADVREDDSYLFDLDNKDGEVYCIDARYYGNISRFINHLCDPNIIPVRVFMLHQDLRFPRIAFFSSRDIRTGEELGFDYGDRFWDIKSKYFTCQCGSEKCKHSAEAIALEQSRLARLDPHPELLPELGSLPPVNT
Description: The biochemical assay to measure G9a enzyme activity relies on time-resolved fluorescence energy transfer (TR-FRET) between europium cryptate (donor) and XL665 (acceptor). […] The human G9a enzyme expressed in a baculovirus infected Sf9 cell expression system was obtained from BPS Biosciences (Cat. #51001). […] Final percentage of DMSO was 0.5%. • 2 μl of 1 nM G9a enzyme diluted in assay buffer. […] Final concentration 150 nM. • Then, add 5 μl of streptavidin XL665 beads. Final concentration of 16 μM. • Read the plate after 1 hour of incubation at room temperature.
(§4) For each well, fluorescence was measured at 620 nm and 665 nm. A ratio (665 nm/620 nm) was then calculated in order to minimize medium interferences. Positive control was obtained in the presence of the vehicle of the compounds. Negative control was obtained in the absence of G9a enzyme activity. Calculated IC50 values were determined using GraphPrism using 4-parameters inhibition curve.

DNMT1 = DNMT1 (Homo sapiens, UniProt P26358); assay: DNMT1 enzyme activity assay (TR-FRET, EPIgeneous methyltransferase assay); type: biochemical
Description: The biochemical assay to measure DNMT1 enzyme activity relies on time-resolved fluorescence energy transfer (TR-FRET) between lumi4-Tb (donor) and d2 (acceptor) using the EPIgeneous methyltransferase assay (CisBio Cat#62SAHPEB). […] TR-FRET signal is inversely proportional to the concentration of SAH, product of DNMT1 enzyme activity, in the sample.
The human DNMT1 was obtained from Reaction Biology Corp. (Cat# DMT-21-124). […] Final percentage of DMSO was 0.5%. • 2 μl of 1 nM DNMT1 enzyme diluted in assay buffer.
as §4

CEMO-1 = assay: Cell proliferation assay, CEMO-1 (ALL); type: cell-based, human; details: Homo sapiens; 48 hours of treatment; Table 3
Description: as §1, §2, §3

HepG2 = assay: Cell proliferation assay, HepG2 (HCC); type: cell-based; details: Homo sapiens, 48 hours of treatment, Table 3
Description: as §1, §2, §3

Hep3B = assay: Cell proliferation assay, Hep3B (HCC); type: cell-based; details: Homo sapiens, 48 hours of treatment, Table 3
Description: as §1, §2, §3

PLC/PRF/5 = assay: Cell proliferation assay, PLC/PRF/5 (HCC); type: cell-based; details: Homo sapiens, 48 hours of treatment, Table 3
Description: as §1, §2, §3

Sequence of DNMT1 (P26358 whole entry): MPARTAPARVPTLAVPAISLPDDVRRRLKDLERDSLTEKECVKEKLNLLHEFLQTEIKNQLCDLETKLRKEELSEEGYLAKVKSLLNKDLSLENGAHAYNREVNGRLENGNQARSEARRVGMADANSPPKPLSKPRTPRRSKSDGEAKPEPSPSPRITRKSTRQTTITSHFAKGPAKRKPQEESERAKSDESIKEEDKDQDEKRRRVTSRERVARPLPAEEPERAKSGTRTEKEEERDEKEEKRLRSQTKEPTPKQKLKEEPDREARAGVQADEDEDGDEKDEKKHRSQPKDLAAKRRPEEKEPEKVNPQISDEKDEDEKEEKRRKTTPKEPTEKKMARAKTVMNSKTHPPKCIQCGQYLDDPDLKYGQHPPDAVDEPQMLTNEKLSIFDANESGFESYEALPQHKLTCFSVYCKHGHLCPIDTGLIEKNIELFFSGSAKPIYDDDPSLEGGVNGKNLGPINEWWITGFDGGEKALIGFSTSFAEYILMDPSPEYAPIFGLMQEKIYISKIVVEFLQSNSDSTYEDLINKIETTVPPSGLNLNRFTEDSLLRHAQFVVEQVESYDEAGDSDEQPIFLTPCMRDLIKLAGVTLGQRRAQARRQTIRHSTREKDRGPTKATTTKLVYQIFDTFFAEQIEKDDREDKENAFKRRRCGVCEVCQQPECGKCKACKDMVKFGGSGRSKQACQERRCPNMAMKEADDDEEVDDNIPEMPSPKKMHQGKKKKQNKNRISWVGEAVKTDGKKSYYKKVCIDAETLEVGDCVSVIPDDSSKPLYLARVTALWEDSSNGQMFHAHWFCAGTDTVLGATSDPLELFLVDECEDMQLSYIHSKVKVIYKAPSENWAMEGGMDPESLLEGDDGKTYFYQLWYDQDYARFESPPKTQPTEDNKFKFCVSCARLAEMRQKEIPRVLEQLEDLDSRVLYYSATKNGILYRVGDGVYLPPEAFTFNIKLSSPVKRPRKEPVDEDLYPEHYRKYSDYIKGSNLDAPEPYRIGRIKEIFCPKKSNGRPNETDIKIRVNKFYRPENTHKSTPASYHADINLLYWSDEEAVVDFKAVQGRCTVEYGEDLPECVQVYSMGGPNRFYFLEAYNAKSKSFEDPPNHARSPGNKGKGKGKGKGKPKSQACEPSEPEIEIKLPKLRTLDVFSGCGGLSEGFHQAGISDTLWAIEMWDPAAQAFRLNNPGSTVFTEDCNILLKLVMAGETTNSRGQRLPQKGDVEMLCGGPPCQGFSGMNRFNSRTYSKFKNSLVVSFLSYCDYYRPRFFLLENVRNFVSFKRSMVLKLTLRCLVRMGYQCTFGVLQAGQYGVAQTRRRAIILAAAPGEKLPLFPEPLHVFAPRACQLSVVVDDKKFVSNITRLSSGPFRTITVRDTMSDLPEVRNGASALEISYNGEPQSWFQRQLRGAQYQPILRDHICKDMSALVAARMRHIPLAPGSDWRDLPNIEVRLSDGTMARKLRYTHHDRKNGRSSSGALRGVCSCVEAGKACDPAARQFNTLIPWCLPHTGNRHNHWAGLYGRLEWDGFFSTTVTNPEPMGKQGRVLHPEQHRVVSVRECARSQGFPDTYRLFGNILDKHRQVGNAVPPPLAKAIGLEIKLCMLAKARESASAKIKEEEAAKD

Row | Structure (SMILES) | GI50 (OCI-Ly3) | pIC50 (human G9a enzyme) | pIC50 (DNMT1) | GI50 (CEMO-1) | GI50 (HepG2) | GI50 (Hep3B) | GI50 (PLC/PRF/5)
1 | COc1cc2c(NC3CCN(C)C(=O)C3)cc(-c3ccc(C)o3)nc2cc1OCCCN1CCCC1 (stereo not shown) [Compound 3-17] | 0.1 to 1 µM |  |  |  |  |  | 
2 | COc1cc2c(NC3CCN(C)CC3)cc(-c3ccc(C)o3)nc2cc1OC1CC2(CNC2)C1 [Compound 16-01, 7-(2-azaspiro[3.3]heptan-6-yloxy)-6-methoxy-2-(5-methyl-2-furyl)-N-(1-methyl-4-piperidyl)quinolin-4-amine; 2,2,2-trifluoroacetic acid] |  | 5.00 to 6.00 | 6.30 to 7.00 | 1 to 10 µM | ≤ 10 µM | ≤ 10 µM | ≤ 10 µM
3 | COc1cc2c(NC3CCC34CCN(C)CC4)cc(-c3ccc(C)o3)nc2cc1OCCCN1CCCC1 (stereo not shown) [Compound 5-01, 6-methoxy-N-(7-methyl-7-azaspiro[3.5]nonan-3-yl)-2-(5-methyl-2-furyl)-7-(3-pyrrolidin-1-ylpropoxy)quinolin-4-amine; 2,2,2-trifluoroacetic acid] | 0.1 to 1 µM |  |  |  |  |  | 
4 | CCc1ccc(-c2cc(NC3CC4(CCNCC4)C3)c3cc(OC)c(OCCCN4CCCC4)cc3n2)o1 [Compound 4-03, N-(7-azaspiro[3.5]nonan-2-yl)-2-(5-ethyl-2-furyl)-6-methoxy-7-(3-pyrrolidin-1-ylpropoxy)quinolin-4-amine:2,2,2-trifluoroacetic acid] |  | > 7.00 | > 7.00 | 1 to 10 µM |  |  | 
5 | COc1cc2c(NC3CCN(C)CC3)cc(-c3ccc(C)[nH]3)nc2cc1OCC1CCNCC1 [Compound 11-05] |  | > 7.00 | 6.30 to 7.00 | ≤ 10 µM | ≤ 10 µM | ≤ 10 µM | ≤ 10 µM
6 | COc1cc2c(NC3CC4(CCN(C)CC4)C3)cc(-c3ccc(C)[nH]3)nc2cc1OCCCN1CCCC1 [Compound 5-05, 6-methoxy-N-(7-methyl-7-azaspiro[3.5]nonan-2-yl)-2-(5-methyl-1H-pyrrol-2-yl)-7-(3-pyrrolidin-1-ylpropoxy)quinolin-4-amine; 2,2,2-trifluoroacetic acid] |  | > 7.00 | 6.30 to 7.00 | 1 to 10 µM |  |  | 
7 | COc1cc2c(NC3CCN(C)CC3)cc(-c3ccc(C)o3)nc2cc1OC1CC2(C1)CN(C)C2 [Compound 17-01, 6-methoxy-7-[(2-methyl-2-azaspiro[3.3]heptan-6-yl)oxy]-2-(5-methyl-2-furyl)-N-(1-methyl-4-piperidyl)quinolin-4-amine; 2,2,2-trifluoroacetic acid] | < 0.1 µM |  |  |  | 0.1 to 1 µM | 0.1 to 1 µM | 0.1 to 1 µM
8 | COc1cc2c(NC3CCCC3)cc(-c3ccc(C)o3)nc2cc1OCCCN1CCCC1 [Compound 3-05] |  |  |  | 0.1 to 1 µM |  |  | 
9 | COc1cc2c(NC3CCN(C)CC3)cc(-c3ccc(C)o3)nc2cc1OCC1CCNCC1 [Compound 11-01, 6-methoxy-2-(5-methyl-2-furyl)-N-(1-methyl-4-piperidyl)-7-(4-piperidylmethoxy)quinolin-4-amine; 2,2,2-trifluoroacetic acid] | < 0.1 µM |  |  |  | 1 to 10 µM | 1 to 10 µM | 1 to 10 µM
10 | COc1cc2c(NC3CCN(C)CC3)cc(-c3ccc(C)s3)nc2cc1OCCCN1CCCC1 [Compound 3-36] |  | > 7.00 | 6.00 to 6.30 | 0.1 to 1 µM |  |  | 
11 | COc1cc2c(NCC3CCN(C)CC3)cc(-c3ccc(C)o3)nc2cc1OCC1CCNCC1 [Compound 11-02] |  | 6.30 to 7.00 | 6.30 to 7.00 | 1 to 10 µM |  |  | 
12 | COc1cc2c(NC3CCN(C(C)C)CC3)cc(C3CCCCC3)nc2cc1OCCCN1CCCC1 [Compound 7-05, 2-cyclohexyl-N-(1-isopropyl-4-piperidyl)-6-methoxy-7-(3-pyrrolidin-1-ylpropoxy)quinolin-4-amine; 2,2,2-trifluoroacetic acid] |  | > 7.00 | 6.00 to 6.30 | ≤ 10 µM | ≤ 10 µM | ≤ 10 µM | ≤ 10 µM
13 | COc1cc2c(NC3CC4(CCN(C)CC4)C3)cc(-c3ccc(C)o3)nc2cc1OCC1CCN(C)CC1 [Compound 12-03] | < 0.1 µM |  |  |  | 0.1 to 1 µM | 0.1 to 1 µM | 0.1 to 1 µM
14 | COc1cc2c(NC3CC4(CCN(C)CC4)C3)cc(-c3ccc(C)o3)nc2cc1OCCCN1CCCC1 [Compound 5-02] | 0.1 to 1 µM |  |  |  | 1 to 10 µM | 1 to 10 µM | 1 to 10 µM
15 | COc1cc2c(NCC3CCN(C)CC3)cc(-c3ccc(C)[nH]3)nc2cc1OCCCN1CCCC1 [Compound 3-39] |  | > 7.00 | > 7.00 | 0.1 to 1 µM |  |  | 
16 | COc1cc2c(NC3CCN(C)CC3)cc(C3CCCCC3)nc2cc1OCCCN1CCCC1 [Compound 7-01, 2-cyclohexyl-6-methoxy-N-(1-methyl-4-piperidyl)-7-(3-pyrrolidin-1-ylpropoxy)quinolin-4-amine; 2,2,2-trifluoroacetic acid] |  | > 7.00 | 6.30 to 7.00 |  |  |  | 
17 | COc1cc2c(NC3CCN(C)CC3)cc(-c3ccc(-c4ccccc4)o3)nc2cc1OCCCN1CCCC1 [Compound 3-32] |  | 5.00 to 6.00 | 5.00 to 6.00 |  |  |  | 
18 | COc1cc2c(NC3CCN(C)CC3)cc(C3CCOCC3)nc2cc1OCCCN1CCCC1 [Compound 7-02, 6-methoxy-N-(1-methyl-4-piperidyl)-7-(3-pyrrolidin-1-ylpropoxy)-2-tetrahydropyran-4-yl-quinolin-4-amine; 2,2,2-trifluoroacetic acid] |  | > 7.00 | 5.00 to 6.00 |  |  |  | 
19 | COc1cc2c(NC3CCNCC3)cc(C3CCCCC3)nc2cc1OCCCN1CCCC1 [Compound 7-04, 2-cyclohexyl-6-methoxy-N-(4-piperidyl)-7-(3-pyrrolidin-1-ylpropoxy)quinolin-4-amine; 2,2,2-trifluoroacetic acid] |  | > 7.00 | 6.00 to 6.30 |  |  |  | 
20 | CCc1ccc(-c2cc(NC3CCN(C)CC3)c3cc(OC)c(OCC4CCNCC4)cc3n2)o1 [Compound 11-03] |  | 5.00 to 6.00 | 6.00 to 6.30 |  |  |  | 
21 | COc1cc2c(NC3CCN(C)CC3)cc(-c3ccn(C)n3)nc2cc1OCCCN1CCCC1 [Compound 3-33] |  | > 7.00 | 5.00 to 6.00 |  |  |  | 
